# US8580794B2 (AbbVie Inc., priority 2009, dated 2013)
# Target: GST-Bc1-2 (Homo sapiens, UniProt P10415)
# Assay: Time Resolved-Fluorescence Resonance Energy Transfer (TR-FRET) Bcl-2 binding assay with F-Bak peptide probe
# Settings: GST-Bcl-2 1 nM, F-Bak probe 100 nM, Tb-anti-GST 1 nM; '<' = below limit of detection; read-out: TR-FRET Bcl-2 Binding Ki
# GST-Bc1-2, sequence (P10415 whole entry): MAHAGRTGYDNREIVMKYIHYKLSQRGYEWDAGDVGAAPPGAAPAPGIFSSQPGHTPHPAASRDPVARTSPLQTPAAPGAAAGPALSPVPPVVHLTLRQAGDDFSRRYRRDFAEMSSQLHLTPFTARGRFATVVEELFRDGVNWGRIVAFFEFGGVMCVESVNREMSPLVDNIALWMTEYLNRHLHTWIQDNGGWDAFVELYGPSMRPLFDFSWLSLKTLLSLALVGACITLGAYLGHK
row,SMILES,Ki
1,"CC1(C)CCC(CN2CCN(c3ccc(C(=O)NS(=O)(=O)c4ccc(N[C@H]5CC[C@H](N6CCN(C7CCOCC7)CC6)CC5)c([N+](=O)[O-])c4)c(Oc4cnc5[nH]ccc5c4)c3)CC2)=C(c2ccc(Cl)cc2)C1 [Example 128, Trans-4-(4-{[2-(4-chlorophenyl)-4,4-dimethylcyclohex-1-en-1-yl]methyl}piperazin-1-yl)-N-[(3-nitro-4-{[4-(4-tetrahydro-2H-pyran-4-ylpiperazin-1-yl)cyclohexyl]amino}phenyl)sulfonyl]-2-(1H-pyrrolo[2,3-b]pyridin-5-yloxy)benzamide]",< 0.01 nM
2,"CC1(C)CCC(CN2CCN(c3ccc(C(=O)NS(=O)(=O)c4ccc(OCC5CCN(C(CF)CF)CC5)c([N+](=O)[O-])c4)c(Oc4cnc5[nH]ccc5c4)c3)CC2)=C(c2ccc(Cl)cc2)C1 [Example 129, 4-(4-{[2-(4-chlorophenyl)-4,4-dimethylcyclohex-1-en-1-yl]methyl}piperazin-1-yl)-N-{[4-({1-[2-fluoro-1-(fluoromethyl)ethyl]piperidin-4-yl}methoxy)-3-nitrophenyl]sulfonyl}-2-(1H-pyrrolo[2,3-b]pyridin-5-yloxy)benzamide]",0.002 nM
3,"CC1(C)CCC(CN2CCN(c3ccc(C(=O)NS(=O)(=O)c4ccc(N[C@@H]5CCN(C6CCOCC6)C5)c([N+](=O)[O-])c4)c(Oc4cnc5[nH]ccc5c4)c3)CC2)=C(c2ccc(Cl)cc2)C1 [Example 130, 4-(4-{[2-(4-chlorophenyl)-4,4-dimethylcyclohex-1-en-1-yl]methyl}piperazin-1-yl)-N-[(3-nitro-4-{[(3R)-1-tetrahydro-2H-pyran-4-ylpyrrolidin-3-yl]amino}phenyl)sulfonyl]-2-(1H-pyrrolo[2,3-b]pyridin-5-yloxy)benzamide]",< 0.01 nM
4,"CC1(C)CCC(CN2CCN(c3ccc(C(=O)NS(=O)(=O)c4ccc(N[C@@H]5CCN(C6CCOC(C)(C)C6)C5)c([N+](=O)[O-])c4)c(Oc4cnc5[nH]ccc5c4)c3)CC2)=C(c2ccc(Cl)cc2)C1 (stereo partly drawn) [Example 131, 4-(4-{[2-(4-chlorophenyl)-4,4-dimethylcyclohex-1-en-1-yl]methyl}piperazin-1-yl)-N-[(4-{[(3R)-1-(2,2-dimethyltetrahydro-2H-pyran-4-yl)pyrrolidin-3-yl]amino}-3-nitrophenyl)sulfonyl]-2-(1H-pyrrolo[2,3-b]pyridin-5-yloxy)benzamide]",< 0.01 nM
5,"CC1(C)CCC(CN2CCN(c3ccc(C(=O)NS(=O)(=O)c4ccc(N[C@H]5CCN(C6CCOCC6)C5)c([N+](=O)[O-])c4)c(Oc4cnc5[nH]ccc5c4)c3)CC2)=C(c2ccc(Cl)cc2)C1 [Example 132, 4-(4-{[2-(4-chlorophenyl)-4,4-dimethylcyclohex-1-en-1-yl]methyl}piperazin-1-yl)-N-[(3-nitro-4-{[(3S)-1-tetrahydro-2H-pyran-4-ylpyrrolidin-3-yl]amino}phenyl)sulfonyl]-2-(1H-pyrrolo[2,3-b]pyridin-5-yloxy)benzamide]",< 0.01 nM
6,"CC1(C)CCC(CN2CCN(c3ccc(C(=O)NS(=O)(=O)c4ccc(N[C@H]5CCN(C6CCOC(C)(C)C6)C5)c([N+](=O)[O-])c4)c(Oc4cnc5[nH]ccc5c4)c3)CC2)=C(c2ccc(Cl)cc2)C1 (stereo partly drawn) [Example 133, 4-(4-{[2-(4-chlorophenyl)-4,4-dimethylcyclohex-1-en-1-yl]methyl}piperazin-1-yl)-N-[(4-{[(3S)-1-(2,2-dimethyltetrahydro-2H-pyran-4-yl)pyrrolidin-3-yl]amino}-3-nitrophenyl)sulfonyl]-2-(1H-pyrrolo[2,3-b]pyridin-5-yloxy)benzamide]",< 0.01 nM
7,"CN1CCOC(CNc2ccc(S(=O)(=O)NC(=O)c3ccc(N4CCN(CC5=C(c6ccc(Cl)cc6)CC(C)(C)CC5)CC4)cc3Oc3cnc4[nH]ccc4c3)cc2[N+](=O)[O-])C1 (stereo not shown) [Example 134, 4-(4-{[2-(4-chlorophenyl)-4,4-dimethylcyclohex-1-en-1-yl]methyl}piperazin-1-yl)-N-[(4-{[(4-methylmorpholin-2-yl)methyl]amino}-3-nitrophenyl)sulfonyl]-2-(1H-pyrrolo[2,3-b]pyridin-5-yloxy)benzamide]",< 0.01 nM
8,"COCCN1CCOC(CNc2ccc(S(=O)(=O)NC(=O)c3ccc(N4CCN(CC5=C(c6ccc(Cl)cc6)CC(C)(C)CC5)CC4)cc3Oc3cnc4[nH]ccc4c3)cc2[N+](=O)[O-])C1 (stereo not shown) [Example 135, 4-(4-{[2-(4-chlorophenyl)-4,4-dimethylcyclohex-1-en-1-yl]methyl}piperazin-1-yl)-N-{[4-({[4-(2-methoxyethyl)morpholin-2-yl]methyl}amino)-3-nitrophenyl]sulfonyl}-2-(1H-pyrrolo[2,3-b]pyridin-5-yloxy)benzamide]",< 0.01 nM
9,"CC(=O)N1CCOC(CNc2ccc(S(=O)(=O)NC(=O)c3ccc(N4CCN(CC5=C(c6ccc(Cl)cc6)CC(C)(C)CC5)CC4)cc3Oc3cnc4[nH]ccc4c3)cc2[N+](=O)[O-])C1 (stereo not shown) [Example 136, N-[(4-{[(4-acetylmorpholin-2-yl)methyl]amino}-3-nitrophenyl)sulfonyl]-4-(4-{[2-(4-chlorophenyl)-4,4-dimethylcyclohex-1-en-1-yl]methyl}piperazin-1-yl)-2-(1H-pyrrolo[2,3-b]pyridin-5-yloxy)benzamide]",< 0.01 nM
10,"CC1(C)CCC(CN2CCN(c3ccc(C(=O)NS(=O)(=O)c4ccc(NCC5(F)CCOCC5)c([N+](=O)[O-])c4)c(Oc4cnc5[nH]ccc5c4)c3)CC2)=C(c2ccc(Cl)cc2)C1 [Example 138, 4-(4-{[2-(4-chlorophenyl)-4,4-dimethylcyclohex-1-en-1-yl]methyl}piperazin-1-yl)-N-[(4-{[(4-fluorotetrahydro-2H-pyran-4-yl)methyl]amino}-3-nitrophenyl)sulfonyl]-2-(1H-pyrrolo[2,3-b]pyridin-5-yloxy)benzamide]",< 0.01 nM
11,"CC1(C)CCC(CN2CCN(c3ccc(C(=O)NS(=O)(=O)c4ccc(NC5CCN(C6COC6)CC5)c([N+](=O)[O-])c4)c(Oc4cnc5[nH]ccc5c4)c3)CC2)=C(c2ccc(Cl)cc2)C1 [Example 139, 4-(4-{[2-(4-chlorophenyl)-4,4-dimethylcyclohex-1-en-1-yl]methyl}piperazin-1-yl)-N-({3-nitro-4-[(1-oxetan-3-ylpiperidin-4-yl)amino]phenyl}sulfonyl)-2-(1H-pyrrolo[2,3-b]pyridin-5-yloxy)benzamide]",< 0.01 nM
12,"CC1(C)CCC(CN2CCN(c3ccc(C(=O)NS(=O)(=O)c4ccc(NC5CCN(C6CCC6)CC5)c([N+](=O)[O-])c4)c(Oc4cnc5[nH]ccc5c4)c3)CC2)=C(c2ccc(Cl)cc2)C1 [Example 140, 4-(4-{[2-(4-chlorophenyl)-4,4-dimethylcyclohex-1-en-1-yl]methyl}piperazin-1-yl)-N-({4-[(1-cyclobutylpiperidin-4-yl)amino]-3-nitrophenyl}sulfonyl)-2-(1H-pyrrolo[2,3-b]pyridin-5-yloxy)benzamide]",< 0.01 nM
13,"CC1(C)CCC(CN2CCN(c3ccc(C(=O)NS(=O)(=O)c4ccc(NC5CCN(C6CCOC(C)(C)C6)CC5)c([N+](=O)[O-])c4)c(Oc4cnc5[nH]ccc5c4)c3)CC2)=C(c2ccc(Cl)cc2)C1 (stereo not shown) [Example 141, 4-(4-{[2-(4-chlorophenyl)-4,4-dimethylcyclohex-1-en-1-yl]methyl}piperazin-1-yl)-N-[(4-{[1-(2,2-dimethyltetrahydro-2H-pyran-4-yl)piperidin-4-yl]amino}-3-nitrophenyl)sulfonyl]-2-(1H-pyrrolo[2,3-b]pyridin-5-yloxy)benzamide]",< 0.01 nM
